In patent US20240150342A1, “ESTROGEN-RELATED RECEPTOR ALPHA MODULATORS” (LEAD PHARMA HOLDING B.V., priority 2019, published 2024):

Molecular target: T1, ERRα ligand binding domain (ERRα-LBD) (Homo sapiens, UniProt P11474)
T1 construct: made in house; host or cells: E. coli
T1 sequence (P11474 193-421 limits assumed): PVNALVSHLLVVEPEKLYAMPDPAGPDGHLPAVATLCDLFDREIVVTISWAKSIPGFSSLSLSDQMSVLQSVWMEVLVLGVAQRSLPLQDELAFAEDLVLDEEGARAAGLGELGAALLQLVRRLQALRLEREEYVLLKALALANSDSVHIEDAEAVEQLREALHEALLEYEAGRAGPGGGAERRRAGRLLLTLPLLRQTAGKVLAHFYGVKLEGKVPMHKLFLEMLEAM
Assay: ERRα AlphaScreen Assay
Type: biochemical
Settings: disruption of binding of ERRα-LBD protein to biotin-PGC1α-3 co-activator peptide; read-out: mean pIC50 (converted)
Description: This assay was based on the knowledge that nuclear receptors interact with cofactors in a ligand dependent matter. The sites of interaction have been mapped to LXXLL motifs that are present in the co-activator sequences. Short peptide sequences that contain the LXXLL motif mimic the behavior of full length co-activators.
The ERRα AlphaScreen Assay described here relies on the interaction of the co-activator peptide with purified bacterial- expressed ERRα ligand binding domain (ERRα-LBD); upon ligand binding, the ERRα protein can undergo a conformational change resulting in a loss of co-activator binding.
Compounds of the present invention were tested for their ability to disrupt binding of ERRα-LBD protein to co-activator peptide using AlphaScreen® Technology (Perkin Elmer). ERRα-LBD protein was expressed in E. coli as a 6×His Small Ubiquitin-like Modifier (SUMO) fusion. Bacterial expressed 6His-SUMO-ERRα-LBD protein was purified using affinity chromatography. All experiments were performed at room temperature in 384-well white non-binding plates (Greiner) using 50 mM Tris-HCl pH 7.5, 100 mM NaCl, 0.1% Pluronic F-127, 0.05% BSA and 5 mM TCEP as the buffer. Final DMSO concentration was 1% in the assay. Compounds were assayed in triplicate and: incubated with 0.81 nM ERRα-LBD protein and 10 μg/mL streptavidin donor beads and 10 μg/mL Ni-chelate acceptor beads for 1 hour at room temperature; followed by a 2-hour incubation with 15 nM biotin-PGC1α-3 peptide (QRRPCSELLKYLTTNDDPP) corresponding to amino acids 202 to 220.
The AlphaScreen signal was measured using an Envision Xcite plate reader (Perkin Elmer). Data was normalized, and curve fitting analysis was performed in GraphPad Prism 7 using a four-parameter dose-response fit.

Row | SMILES | IC50
1 | COc1cc(C2CC(=O)Nc3n[nH]cc32)ccc1Oc1ccc2c(c1)CCC2 (stereo not shown) [Example 49, 4-[4-(2,3-dihydro-1H-inden-5-yloxy)-3-methoxyphenyl]-2H, 4H, 5H, 6H,7H-pyrazolo[3,4-b]pyridin-6-one] | 100 to 1000 nM
2 | COc1cc(C2CC(=O)Nc3n[nH]cc32)ccc1Oc1ccccc1C(C)C (stereo not shown) [Example 23, 4-{3-methoxy-4-[2-(propan-2-yl)phenoxy]phenyl}-2H,4H,5H,6H,7H-pyrazolo[3,4-b]pyridin-6-one] | 10 to 100 nM
3 | COc1cc(C2CC(=O)Nc3n[nH]cc32)ccc1Oc1cc(C(C)(C)C)cc(C(C)(C)C)c1 (stereo not shown) [Example 44, 4-[4-(3,5-di-tert-butylphenoxy)-3-methoxyphenyl]-2H,4H,5H,6H,7H-pyrazolo[3,4-b]pyridin-6-one] | 10 to 100 nM
4 | COc1cc(C2CC(=O)Nc3n[nH]cc32)ccc1Oc1ccccc1OC(F)(F)F (stereo not shown) [Example 12, 4-{3-methoxy-4-[2-(trifluoromethoxy)phenoxy]phenyl}-2H,4H,5H,6H,7H-pyrazolo[3,4-b]pyridin-6-one] | 10 to 100 nM
5 | COc1cc(C2CC(=O)Nc3n[nH]cc32)ccc1Oc1ccccc1C12CC(C1)C2 (stereo not shown) [Example 45, 4-[4-(2-{bicyclo[1.1.1]pentan-1-yl}phenoxy)-3-methoxyphenyl]-2H,4H,5H,6H,7H-pyrazolo[3,4-b]pyridin-6-one] | 10 to 100 nM
6 | COc1cc(C2CC(=O)Nc3n[nH]cc32)ccc1Oc1cccc(C2CC2)c1 (stereo not shown) [Example 31, 4-[4-(3-cyclopropylphenoxy)-3-methoxyphenyl]-2H,4H,5H,6H,7H-pyrazolo[3,4-b]pyridin-6-one] | 10 to 100 nM
7 | CCCc1ccccc1Oc1ccc(C2CC(=O)Nc3n[nH]cc32)cc1OC (stereo not shown) [Example 22, 4-[3-methoxy-4-(2-propylphenoxy)phenyl]-2H,4H,5H,6H,7H-pyrazolo[3,4-b]pyridin-6-one] | 100 to 1000 nM
8 | COc1cc(C2CC(=O)Nc3n[nH]cc32)ccc1Oc1ccccc1Br (stereo not shown) [Example 7, 4-[4-(2-bromophenoxy)-3-methoxyphenyl]-2H,4H,5H,6H,7H-pyrazolo[3,4-b]pyridin-6-one] | 100 to 1000 nM
9 | COc1cc(C2CC(=O)Nc3n[nH]cc32)ccc1Oc1cccc(C(C)C)c1 (stereo not shown) [Example 30, 4-{3-methoxy-4-[3-(propan-2-yl)phenoxy]phenyl}-2H,4H,5H,6H,7H-pyrazolo[3,4-b]pyridin-6-one] | 10 to 100 nM
10 | COc1cc(C2CC(=O)Nc3n[nH]cc32)ccc1Oc1ccc(C#N)cc1C(F)(F)F (stereo not shown) [Example 2, 4-(2-methoxy-4-{6-oxo-2H,4H,5H,6H,7H-pyrazolo[3,4-b]pyridin-4-yl}phenoxy)-3-(trifluoromethyl)benzonitrile] | 100 to 1000 nM
11 | COc1cc(C2CC(=O)Nc3n[nH]cc32)ccc1Oc1ccccc1C1CC1 (stereo not shown) [Example 28, 4-[4-(2-cyclopropylphenoxy)-3-methoxyphenyl]-2H,4H,5H,6H,7H-pyrazolo[3,4-b]pyridin-6-one] | 10 to 100 nM
12 | COc1cc(C2CC(=O)Nc3n[nH]cc32)ccc1Oc1cccc2c1CCC2 (stereo not shown) [Example 47, 4-[4-(2,3-dihydro-1H-inden-4-yloxy)-3-methoxyphenyl]-2H,4H,5H,6H,7H-pyrazolo[3,4-b]pyridin-6-one] | 10 to 100 nM
13 | COc1cc(Oc2ccc(C3CC(=O)Nc4n[nH]cc43)cc2Br)cc(C(F)(F)F)c1 (stereo not shown) [Example 52, 4-{3-bromo-4-[3-methoxy-5-(trifluoromethyl)phenoxy]phenyl}-2H,4H,5H,6H,7H-pyrazolo[3,4-b]pyridin-6-one] | 10 to 100 nM
14 | COc1cc(C2CC(=O)Nc3n[nH]cc32)ccc1Oc1cccc(OC(F)(F)F)c1 (stereo not shown) [Example 17, 4-{3-methoxy-4-[3-(trifluoromethoxy)phenoxy]phenyl}-2H,4H,5H,6H,7H-pyrazolo[3,4-b]pyridin-6-one] | 100 to 1000 nM
15 | COc1cc(C2CC(=O)Nc3n[nH]cc32)ccc1Oc1cccc(C)c1 (stereo not shown) [Example 1, 4-[3-methoxy-4-(3-methylphenoxy)phenyl]-2H,4H,5H,6H, 7H-pyrazolo[3,4-b]pyridin-6-one] | 100 to 1000 nM
16 | COc1cc(C2CC(=O)Nc3n[nH]cc32)ccc1Oc1ccccc1C(F)(F)F (stereo not shown) [Example 4, 4-{3-methoxy-4-[2-(trifluoromethyl)phenoxy]phenyl}-2H,4H,5H,6H,7H-pyrazolo[3,4-b]pyridin-6-one] | 100 to 1000 nM
17 | CCc1ccccc1Oc1ccc(C2CC(=O)Nc3n[nH]cc32)cc1OC (stereo not shown) [Example 20, 4-[4-(2-ethylphenoxy)-3-methoxyphenyl]-2H,4H,5H,6H,7H-pyrazolo[3,4-b]pyridin-6-one] | 100 to 1000 nM
18 | CCc1cccc(Oc2ccc(C3CC(=O)Nc4n[nH]cc43)cc2OC)c1 (stereo not shown) [Example 21, 4-[4-(3-ethylphenoxy)-3-methoxyphenyl]-2H,4H,5H,6H,7H-pyrazolo[3,4-b]pyridin-6-one] | 100 to 1000 nM

More lines, now with the values ahead:

Row | IC50 | SMILES
19 | 100 to 1000 nM | COc1cc(-c2cc(=O)[nH]c3n[nH]cc23)ccc1Oc1ccc(C#N)cc1C(F)(F)F [Example 71, 4-(2-methoxy-4-{6-oxo-2H,6H,7H-pyrazolo[3,4-b]pyridin-4-yl}phenoxy)-3-(trifluoromethyl)benzonitrile]
20 | 100 to 1000 nM | COc1cc(C2CC(=O)Nc3n[nH]cc32)ccc1Oc1cc(C)cc(C)c1 (single isomer, unassigned; (+)) [Example 81, (+)-4-[4-(3,5-dimethylphenoxy)-3-methoxyphenyl]-2H,4H,5H,6H,7H-pyrazolo[3,4-b]pyridin-6-one]
21 | 100 to 1000 nM | O=C1CC(c2ccc(Oc3ccccc3C(F)(F)F)c(OC(F)(F)F)c2)c2c[nH]nc2N1 (stereo not shown) [Example 60, 4-[3-(trifluoromethoxy)-4-[2-(trifluoromethyl)phenoxy]phenyl]-2H,4H,5H,6H,7H-pyrazolo[3,4-b]pyridin-6-one]
22 | 10 to 100 nM | COc1cc(C2CC(=O)Nc3n[nH]cc32)ccc1Oc1ccc(C(=O)O)cc1C(C)(C)C (stereo not shown) [Example 61, 3-tert-butyl-4-(2-methoxy-4-{6-oxo-2H,4H,5H,6H,7H-pyrazolo[3,4-b]pyridin-4-yl}phenoxy)benzoic acid]
23 | 10 to 100 nM | COc1cc(Oc2ccc(C3CC(=O)Nc4n[nH]cc43)cc2C)cc(C(F)(F)F)c1 (stereo not shown) [Example 56, 4-{4-[3-methoxy-5-(trifluoromethyl)phenoxy]-3-methylphenyl}-2H,4H,5H,6H,7H-pyrazolo[3,4-b]pyridin-6-one]
24 | 10 to 100 nM | CC(C)(C)c1cc(C#N)ccc1Oc1ccc(C2CC(=O)Nc3n[nH]cc32)cc1 (stereo not shown) [Example 53, 3-tert-butyl-4-(4-{6-oxo-2H,4H,5H,6H,7H-pyrazolo[3,4-b]pyridin-4-yl}phenoxy)benzonitrile]
25 | 100 to 1000 nM | COc1cc(C2CC(=O)Nc3n[nH]cc32)ccc1Oc1ccc(C(F)(F)F)cc1C (stereo not shown) [Example 65, 4-{3-methoxy-4-[2-methyl-4-(trifluoromethyl)phenoxy]phenyl}-2H,4H,5H,6H,7H-pyrazolo[3,4-b]pyridin-6-one]
26 | 10 to 100 nM | COc1cc(Oc2ccc(C3CC(=O)Nc4n[nH]cc43)cc2)cc(C(F)(F)F)c1 (stereo not shown) [Example 54, 4-{4-[3-methoxy-5-(trifluoromethyl)phenoxy]phenyl}-2H,4H,5H,6H,7H-pyrazolo[3,4-b]pyridin-6-one]
27 | 100 to 1000 nM | COc1cc(C2CC(=O)Nc3n[nH]cc32)ccc1Oc1ccc(C)cc1C (stereo not shown) [Example 66, 4-[4-(2,4-dimethylphenoxy)-3-methoxyphenyl]-2H,4H,5H,6H,7H-pyrazolo[3,4-b]pyridin-6-one]
28 | 10 to 100 nM | Cc1cc(C2CC(=O)Nc3n[nH]cc32)ccc1Oc1ccc(C#N)cc1C(C)(C)C (stereo not shown) [Example 55, 3-tert-butyl-4-(2-methyl-4-{6-oxo-2H,4H,5H,6H,7H-pyrazolo[3,4-b]pyridin-4-yl}phenoxy)benzonitrile]
